Data reported in the METLIN SMRT retention time set (Domingo-Almenara et al. 2019).

Experiment: gradient 5% acetonitrile 3 min, to 50% in 2 min, to 85% in 15 min, held 3 min, 100 µL/min
Settings: column: Zorbax Extend-C18 2.1 x 50 mm; eluents: water / acetonitrile, 0.1% formic acid
How it was run: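 Data were gathered over 3 months by HPLC coupled to a quadrupole time-of-flight mass spectrometer, operated in positive and negative ionization mode. Mixtures of ~100 pure standards ran on a Zorbax Extend-C18 column (2.1 × 50 mm, 1.8 μm) at 100 μL/min, with water and acetonitrile each containing 0.1% formic acid and dead and dwell volumes of 40 μL and 900 μL. Retention time was read from adduct peaks picked by computer and checked manually.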

Structure (SMILES) | RP-LC retention time [s]
Cc1[nH]c(C)c(S(=O)(=O)N2CCC(C(=O)N(C)C3CCCCC3)CC2)c1C(=O)N1CCCCC1 | 762
O=C(NCC1CCCCC1)C1CCN(c2cncnc2N2CCOCC2)CC1 | 644
O=C(NCc1ccccc1Cl)C1CCN(c2cnc(N3CCCC3)nc2)CC1 | 684
CC(C)CN1CCN(C(=O)c2ccc(-c3ccnc(N4CCCC4)n3)cc2)CC1 | 587
CN(C)c1nc2cc(C(=O)N3CCC4(CC3)OCCO4)sc2n1-c1ccccc1 | 647
CCOCCOC(=O)C1=C(C)NC2=C(C(=O)CCC2)C1c1cccc(OC)c1OC (stereo not given) | 732
Cc1nnc2ccc(-c3noc(Cc4ccc(Cl)cc4)n3)cn12 | 868
O=C(Cn1nc2n(c1=O)CCCC2)Nc1ccc2c(c1)OCCO2 | 635
CC1CCN(S(=O)(=O)c2cc(C(=O)N3CCN(c4ccc(Cl)cc4)CC3)n(C)c2)CC1 | 1100
Cc1ccc(N2CC(c3nc(-c4ccc5c(c4)OCO5)no3)CC2=O)cc1C (stereo not given) | 911
COc1cc2nc(C(=O)N3CCC(C)CC3)cc(Nc3cccc(SC)c3)c2cc1OC | 776
CCc1nnc(-c2ccc(S(=O)(=O)N3CCOCC3)o2)o1 | 714
CCn1nnc2ccc(-c3noc(-c4cccc(C#N)c4)n3)cc21 | 957
Cc1cc2nc(C(F)(F)F)c(=O)n(C(C)C(=O)NCCN3CCOCC3)c2cc1C (stereo not given) | 683
C=C(CN(C)C)C(=O)c1ccccc1Cl | 594
COc1ccc(N2CCN(c3ccc4cc(S(=O)(=O)N5CCCC5)ccc4n3)CC2)cc1 | 855
COc1cccc(CN2CCC3(CC2)CC(O)CCO3)n1 (stereo not given) | 572
O=C(c1ccc(-c2cccs2)nc1)N1CCOCC1 | 678
COc1ncc(C(=O)NC(C)c2ccc(F)cc2)cn1 (stereo not given) | 756

Structure (SMILES) | RP-LC retention time [s]
CCc1noc(C2(NC(=O)c3cccc(Cl)c3)CCCCC2)n1 | 1030
CCC1(O)C(=O)OCc2c1cc1n(c2=O)Cc2cc3c(N)cccc3nc2-1 (stereo not given) | 632
O=C1CC(c2noc(-c3ccc4c(c3)OCO4)n2)CN1c1ccc(F)cc1 (stereo not given) | 1200
O=C(NCC1CCOCC1)c1n[nH]c2ccccc12 | 654
COc1ccccc1N1CCN(CCN2C(=O)CC3(CCCC3)CC2=O)CC1 | 733
O=C(NC1CCCCCC1)c1nc(-c2ccnc(N3CCCCC3)c2)no1 | 883
COc1ccc(N2CCN(C(=O)c3sc4cccc(F)c4c3OC)CC2)cc1 | 998
O=S(=O)(c1ccc(F)c(Cl)c1)N1CCc2nc[nH]c2C1 | 632
O=C(CN1CC(c2nc(-c3ncccn3)no2)C1)Nc1ccc(F)c(Cl)c1 | 576
Cc1nc(-c2cn(C(C)C)c3ncccc23)sc1C(=O)N1CCN(C)CC1 | 611
COc1ccc(CN(CCC2(C(C)C)CCOC(C)(C)C2)C(C)=O)cc1OC (stereo not given) | 864
O=C(CCc1nc2ccccc2s1)N1[C@H]2CC[C@@H]1c1cnc(-c3ccc(F)cc3)nc1C2 | 960
CN(CCc1noc(C2CN(Cc3cc(Cl)ccc3F)C2)n1)S(C)(=O)=O | 608
COc1ccc(NC(=O)C2CCCN2S(=O)(=O)c2ccc3c(c2)CCCC(=O)N3)cc1OC (stereo not given) | 688
CSc1cccc(NS(=O)(=O)c2cc3c(s2)CCN(C(=O)C2CC2)C3)c1 | 860
c1ccc2cc(CC3=NCCN3)ccc2c1 | 649
CC(C)N1CCN(S(=O)(=O)c2ccc(-c3nnc(C4CCC4)o3)o2)CC1 | 637
Cc1ccc(-c2noc(C3CC3)n2)cc1S(=O)(=O)N1CCC(C(=O)NC2CC2)CC1 | 836
Cc1ccc(C)c(N2CCN(C(=O)C3CCN(c4cnc5nccnc5c4)CC3)CC2)c1 | 907

The remaining lines, values ahead:

RP-LC retention time [s] | Structure (SMILES)
940 | CC(C)CNC(=O)N1CCc2c(c(-c3nc(-c4ccc(F)cc4)no3)nn2C)C1
785 | COc1ccc(-c2nnc(-c3ccc(C)c(S(=O)(=O)N4CCC(C(=O)O)CC4)c3)o2)cc1OC
767 | O=C(Cn1c(=O)nc(NC2CCCC2)c2ccccc21)Nc1cc(F)cc(F)c1
676 | COCCN1C(=O)CCC2(CNC(=O)c3cnc(C)cn3)CCC=C12 (stereo not given)
616 | c1ccn(CCc2ccncc2)c1
606 | COC(=O)Nc1nc(CC(=O)NCc2ccco2)cs1
900 | COCCCNC(=O)COc1ccccc1-c1nnc(-c2ccccc2)o1
674 | Cc1nn(C)cc1C(=O)N(Cc1ccccc1)c1ccccn1
595 | CN(C)S(=O)(=O)c1ccc(-c2nnc(C(=O)NCc3cccnc3)o2)cc1
802 | CNC(=O)C1Cc2ccccc2N1S(=O)(=O)c1cccc(C(F)(F)F)c1 (stereo not given)
873 | CCCCCc1nnc(NC(=O)C2CC(=O)N(CCc3c[nH]c4ccc(C)cc34)C2)s1 (stereo not given)
930 | Cc1nc(C)c(C(=O)Nc2nc(-c3ccccc3)c(C)s2)s1
642 | CC(=O)c1ccc(NC(=O)COc2cc(C)nc(N3CCCCCC3)n2)cc1
956 | Cc1ccc(Cl)cc1NC(=O)Cn1cccc1-c1nnc(C2CC2)o1
1180 | COC(=O)c1cc(C2CC2)nc2c1c(=O)n(Cc1ccc(Cl)cc1)c(=O)n2C
698 | Cc1nc(OCC(=O)NCc2ccc3c(c2)OCO3)c2ccccc2n1
942 | CCn1c(=O)c(C)nc2cc(-c3noc(-c4ccc(OC)cc4)n3)ccc21
706 | CCCCNC(=O)c1cc(NS(=O)(=O)c2ccc(C(C)(C)C)cc2)cnc1N1CCNCC1
916 | Cc1ccc2[nH]cc(CCN3CC(C(=O)Nc4ccc(Br)cc4)CC3=O)c2c1 (stereo not given)
1270 | CCn1cccc1-c1nc(C)c(C(=O)Nc2ccc(C)c(C)c2)s1
661 | O=C(Nc1ccc(-c2nnc3n2CCCC3)cc1)c1ccc2c(c1)OCO2
929 | CC(=O)N1c2ccc(S(=O)(=O)N3CCCCCC3)cc2CC1C(=O)NCc1ccc(C)cc1 (stereo not given)
1000 | Cc1cc2nc(C(=O)Nc3ccccc3F)cc(C)n2n1
831 | COC(=O)c1cccc(N2C=C(C(=O)N3CCCC3)S(=O)(=O)c3ccc(Cl)cc32)c1
849 | CCc1cc(=O)n(CC(=O)Nc2ccc(C(F)(F)F)cc2)c(N2CCOCC2)n1
1040 | COc1cccc(-c2nc(C3CCN(C(=O)c4cc5ccccc5[nH]4)CC3)no2)c1

RP-LC retention time [s] | Structure (SMILES)
793 | CN(CCCNC(=O)C1CCc2nc(N3CCCCC3)ncc2C1)c1ccccc1 (stereo not given)
895 | O=S(=O)(c1ccc2nncn2c1)N(Cc1cc(F)cc(F)c1)c1cccc(F)c1
764 | Cc1cc(F)ccc1NC(=O)CN1C(=O)NC2(CCCCC2)C1=O
1100 | Cc1ccc(S(=O)(=O)N2CC(=O)N(C3CCCCC3)C(C)(C(=O)NCc3ccccc3)C2)cc1 (stereo not given)
1010 | CN1c2cc(Cl)ccc2C(=O)NC12CCN(C(=O)NCc1cccc(F)c1)CC2
713 | O=C(Cn1c(=O)n(C2CC2)c(=O)c2nscc21)N1CCN(c2ccccc2F)CC1
942 | COc1ccc(NC(=O)c2cc(C)n3nccc3n2)cc1Cl
888 | Cc1noc(-c2cc(=O)n(CC(=O)NCc3ccc(Cl)cc3)c3ccccc23)n1
1020 | O=C(CCc1ccccc1)N1CCc2cc(-c3ccno3)ccc21
893 | Cc1ccc(C)c(CNC(=O)c2cccn2Cc2noc(C)n2)c1
814 | CN1C(=O)c2cc(C(=O)NCCCc3ccccc3)nn2CC1(C)C(=O)NCc1ccccc1 (stereo not given)
1060 | O=C(NCCC1CCCCN1S(=O)(=O)c1ccccc1)C(=O)Nc1ccccc1Cl (stereo not given)
637 | O=C(Nc1cnc(N2CCC(N3CCCCC3)CC2)c(C(=O)O)c1)c1ccc(Br)cc1
627 | Cn1c(SCc2ccc([N+](=O)[O-])cc2)nnc1-c1cccnc1
706 | CCN1CCN(C(=O)C2CCCN(c3nc4ccccc4n(Cc4ccccc4)c3=O)C2)CC1 (stereo not given)
618 | COc1cccc(CC(=O)NCC(=O)Nc2nc3ccccc3[nH]2)c1
792 | COc1cc(OC)cc(C(=O)N2CCC(C(=O)NCCc3csc(-c4cccs4)n3)CC2)c1
868 | O=C(NCc1ccc(-c2noc(Cc3ccccc3F)n2)s1)C1CC1
1000 | CCOC(=O)c1[nH]c(C)c(CN(CC2CCCO2)C(=O)c2ccc(Cl)cc2)c1C (stereo not given)
700 | CC(=O)Nc1nc(-c2ccc3c(c2)N(C)C(=O)CO3)cs1
733 | CN1C(=O)COc2ccc(-c3csc(NC(=O)c4cccnc4)n3)cc21
901 | CCOc1ccc(S(=O)(=O)N2CCC(C(=O)NCCc3ccc(OC)c(OC)c3)CC2)cc1C
717 | COc1ccc(-c2cc3nn(CC(=O)N4CCOCC4)c(=O)n3c(C)n2)cc1
604 | COc1ccc(CNC(=O)c2cn3cccc(C)c3n2)cc1OC
856 | NS(=O)(=O)c1ccc(Nc2ccccc2)c([N+](=O)[O-])c1
916 | Cc1ccc(C(=O)N2CCCC(COc3ccc(C(=O)NC(C)C)cc3)C2)c(C)c1 (stereo not given)
